The test system of data set [1] is Mus musculus. The experiment in a line: Ability to augment IL-10 in LPS-stimulated mice after oral administration by ELISA assay. The arrangement: concentration or dose not given beside the values. It counts as functional. For orientation: ELISA stands for enzyme-linked immunosorbent assay.
Data set [2] has as its system Mus musculus. The experiment in a line: Ability to inhibit TNF-alpha in LPS-stimulated mice after oral administration by ELISA assay. Details: concentration or dose not given beside the values. It counts as functional.
Data set [3] is filed under the species Mus musculus. As to the kind of experiment: Dose that prevented shock death in mice. It counts as functional.
Data set [4] is described as follows: Oral bioavailability at a dose of 30 mg/kg in rats. It counts as ADME, organism-based. The settings on record: rat, in vivo.
Data set [5] concerns Mus musculus. The experiment in a line: Ability of compound to prevent shock death in mice expressed as no of mice that survived out of 10 at a dose of 10 mg/kg. It counts as functional.
In data set [6] the target is D(2) dopamine receptor (Bos taurus, UniProt P20288). As to the kind of experiment: Binding affinity towards Dopamine receptor D2.
D(2) dopamine receptor, sequence (P20288 whole entry): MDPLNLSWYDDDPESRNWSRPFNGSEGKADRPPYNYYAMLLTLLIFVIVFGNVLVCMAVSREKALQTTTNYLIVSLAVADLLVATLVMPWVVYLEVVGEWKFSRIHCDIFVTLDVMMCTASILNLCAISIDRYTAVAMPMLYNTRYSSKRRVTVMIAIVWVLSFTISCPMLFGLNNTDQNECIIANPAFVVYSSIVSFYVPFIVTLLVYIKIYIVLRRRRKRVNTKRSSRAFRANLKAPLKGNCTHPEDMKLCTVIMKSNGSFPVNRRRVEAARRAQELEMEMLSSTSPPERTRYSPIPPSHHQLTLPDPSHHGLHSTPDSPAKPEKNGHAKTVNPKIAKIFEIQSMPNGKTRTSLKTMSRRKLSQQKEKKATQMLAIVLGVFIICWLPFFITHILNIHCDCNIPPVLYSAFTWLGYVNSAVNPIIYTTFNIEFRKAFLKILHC
The target of data set [7] is T1, Adrenergic receptor alpha-1 (Rattus norvegicus, UniProt P15823+P23944+P43140).
T1 sequence (P15823 whole entry): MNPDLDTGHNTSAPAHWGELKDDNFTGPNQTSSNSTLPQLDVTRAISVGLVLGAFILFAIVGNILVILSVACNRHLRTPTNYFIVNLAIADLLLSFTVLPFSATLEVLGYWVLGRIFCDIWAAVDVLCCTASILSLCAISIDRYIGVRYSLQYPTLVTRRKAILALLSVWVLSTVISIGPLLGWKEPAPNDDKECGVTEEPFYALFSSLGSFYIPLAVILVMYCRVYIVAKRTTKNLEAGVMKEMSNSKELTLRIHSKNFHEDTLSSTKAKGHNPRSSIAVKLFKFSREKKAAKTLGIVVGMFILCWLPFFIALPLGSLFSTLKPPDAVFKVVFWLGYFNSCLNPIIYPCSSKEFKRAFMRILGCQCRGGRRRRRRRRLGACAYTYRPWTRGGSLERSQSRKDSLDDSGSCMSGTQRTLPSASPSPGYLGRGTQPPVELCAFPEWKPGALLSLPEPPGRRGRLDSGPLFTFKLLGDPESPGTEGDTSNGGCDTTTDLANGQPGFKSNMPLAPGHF
T1 sequence (P23944 whole entry): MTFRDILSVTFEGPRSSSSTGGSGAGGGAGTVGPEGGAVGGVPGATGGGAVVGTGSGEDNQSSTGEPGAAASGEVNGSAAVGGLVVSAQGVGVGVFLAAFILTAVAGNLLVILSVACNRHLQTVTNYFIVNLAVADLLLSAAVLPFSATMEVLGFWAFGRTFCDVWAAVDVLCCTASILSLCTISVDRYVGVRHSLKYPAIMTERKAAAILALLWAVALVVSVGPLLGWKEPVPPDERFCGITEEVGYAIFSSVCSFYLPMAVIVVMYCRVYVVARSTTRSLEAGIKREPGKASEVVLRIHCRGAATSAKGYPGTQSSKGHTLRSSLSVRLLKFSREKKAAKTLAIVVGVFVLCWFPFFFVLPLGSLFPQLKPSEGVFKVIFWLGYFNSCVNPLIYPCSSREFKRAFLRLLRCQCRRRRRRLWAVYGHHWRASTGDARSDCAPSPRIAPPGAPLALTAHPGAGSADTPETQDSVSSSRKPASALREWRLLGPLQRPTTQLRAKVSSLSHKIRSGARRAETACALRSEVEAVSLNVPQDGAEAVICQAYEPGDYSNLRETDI
T1 sequence (P43140 whole entry): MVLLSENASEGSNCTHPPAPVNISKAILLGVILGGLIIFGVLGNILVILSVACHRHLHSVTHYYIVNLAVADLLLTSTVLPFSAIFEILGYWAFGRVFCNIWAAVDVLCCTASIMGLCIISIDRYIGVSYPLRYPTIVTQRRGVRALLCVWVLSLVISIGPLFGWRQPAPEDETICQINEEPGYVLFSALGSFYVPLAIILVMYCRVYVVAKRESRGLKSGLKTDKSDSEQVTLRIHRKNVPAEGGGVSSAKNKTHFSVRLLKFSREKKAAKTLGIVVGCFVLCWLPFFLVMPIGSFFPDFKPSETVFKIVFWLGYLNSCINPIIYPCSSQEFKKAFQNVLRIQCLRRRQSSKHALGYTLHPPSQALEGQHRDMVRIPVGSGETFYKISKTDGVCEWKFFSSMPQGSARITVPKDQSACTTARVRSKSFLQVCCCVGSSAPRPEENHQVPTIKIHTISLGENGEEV
As to the kind of experiment: Binding affinity towards Alpha-1 adrenergic receptor. It counts as protein assay.

Data set [8] addresses Serotonin 2 (5-HT2) receptor (Homo sapiens, UniProt P41595+P28223+P28335). As to the kind of experiment: Binding affinity towards 5-hydroxytryptamine 2 receptor. It counts as protein assay.
For data set [9], the target named is T2, 5-hydroxytryptamine receptor 1A (Rattus norvegicus, UniProt P19327).
T2 sequence (P19327 whole entry): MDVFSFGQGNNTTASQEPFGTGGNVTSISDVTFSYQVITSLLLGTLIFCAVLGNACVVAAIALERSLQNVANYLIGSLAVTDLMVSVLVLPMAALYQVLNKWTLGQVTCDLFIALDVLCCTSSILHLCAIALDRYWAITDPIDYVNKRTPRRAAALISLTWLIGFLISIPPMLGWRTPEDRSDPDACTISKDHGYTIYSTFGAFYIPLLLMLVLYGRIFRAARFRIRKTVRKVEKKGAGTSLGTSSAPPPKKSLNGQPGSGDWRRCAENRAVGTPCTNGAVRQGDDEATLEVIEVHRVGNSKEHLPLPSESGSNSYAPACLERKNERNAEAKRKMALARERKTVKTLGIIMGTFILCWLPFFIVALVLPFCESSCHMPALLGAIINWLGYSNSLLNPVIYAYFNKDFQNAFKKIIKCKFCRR
As to the kind of experiment: Binding affinity towards 5-hydroxytryptamine 1A receptor.

As a reminder, the Inhibition is the drop in the measured response relative to a control, in per cent. Regarding `CC(=O)Nc1ccc(CCCCN2CCN(c3ccccc3)CC2)cc1`, the “IL-10 level (% of control)” value in data set [1] was 585%. The same molecule registered an Inhibition in data set [2] of 88%.
Usually bioavailability stands for the share of a dose that reaches the circulation, judged against a reference dose that is usually intravenous. One may read the Ki as the equilibrium dissociation constant of an inhibitor or competing ligand from its target. Regarding `CC(=O)NCc1ccc(CN2CCN(c3ccc(F)cc3F)CC2)cc1`, in data set [3], the Dose was found to be 10 mg/kg. Also, the bioavailability in data set [4] was 95.5%. Besides, the “IL-10 level (% of control)” value in [1] is reported as 2293%. The same molecule displayed a Survival in data set [5] of 8. Moreover, the Ki in data set [6], in data set [7] and in [8] was above 1000 nM each time. In [2], this molecule showed an Inhibition of 91%.
Consider `Nc1nc(-c2ccc(CCCCN3CCN(c4ccccc4)CC3)cc2)cs1`, for which, in [1], the “IL-10 level (% of control)” value amounted to 382%. Further, the Ki in [6] was 5.5 nM; in [7] it was 7.9 nM; in data set [9] it was 3.8 nM; in data set [8], 37 nM. Besides, the Inhibition in data set [2] stood at 87%.
Consider `CC(=O)NCCCc1ccc(CCCCN2CCN(c3ccccc3)CC2)cc1`, for which, in data set [1], the “IL-10 level (% of control)” value amounted to 146%. In data set [2], this molecule gave an Inhibition of 68%.
`N=C(N)NCc1ccc(CCCCN2CCN(c3ccccc3)CC2)cc1`: the “IL-10 level (% of control)” value in [1] was 124%. Besides, the Inhibition in [2] was 39%.
For the molecule `COc1ccc(N2CCN(Cc3ccc(CNC(C)=O)cc3)CC2)cc1`, the “IL-10 level (% of control)” value in data set [1] is listed as 449%. Further, the Ki in data set [6], in data set [7], in [9] and in data set [8] was above 1000 nM each time. Also, in [2], the Inhibition is given as 74%.
Turning to `CC(=O)NCc1ccc(CCCCN2CCN(c3ccccc3)CC2)cc1`, the “IL-10 level (% of control)” value in [1] worked out at 1337%. Further, the Ki in data set [6] came to 49 nM; in data set [7] it was 4.6 nM; in [9], 6 nM; in data set [8], 48 nM. The molecule also registered an Inhibition in data set [2] of 94%.
As to `N/C(S)=N/Cc1ccc(CCCCN2CCN(c3ccccc3)CC2)cc1`, the “IL-10 level (% of control)” value in data set [1] was 129%. The molecule further had an Inhibition in data set [2] of 69%.
Consider `c1ccc(CCCCN2CCN(c3ccccc3)CC2)cc1`, for which the “IL-10 level (% of control)” value in data set [1] is reported as 337%. This molecule showed an Inhibition in [2] of 77%.
Regarding `CC(=O)NCc1ccc(CCCN2CCN(c3ccccc3)CC2)cc1`, in data set [1], the “IL-10 level (% of control)” value is 1805%. For the same molecule, the Ki in [6] turned out to be 340 nM; in [7], 6.4 nM; in data set [9] it was 33 nM; in data set [8] it was 160 nM. Besides, the Inhibition in data set [2] is listed as 97%.
For the molecule `CC(=O)NCc1ccc(CN2CCN(c3ccccc3)CC2)cc1`, in data set [1], the “IL-10 level (% of control)” value was 376%. The Ki in [6] was above 1000 nM; in data set [7], above 1000 nM; in data set [9], 140 nM; in data set [8], above 1000 nM. Moreover, in [2], the Inhibition came out at 89%.
Consider `CC(=O)NCc1ccc(CCN2CCN(c3ccccc3)CC2)cc1`, for which, in data set [1], the “IL-10 level (% of control)” value is on record as 2784%. Besides, the Ki in data set [6] was 170 nM; in [7] it was 69 nM; in [9], 2.9 nM; in [8] it was 130 nM. In data set [2], this molecule gave an Inhibition of 96%.
With `CC(=O)NCCc1ccc(CCCCN2CCN(c3ccccc3)CC2)cc1`, in data set [1], the “IL-10 level (% of control)” value is recorded as 292%. Besides, the Inhibition in data set [2] was 76%.
In the case of `CC(=O)NCc1ccc(CN2CCN(c3ccc(F)cc3)CC2)cc1`, the “IL-10 level (% of control)” value in data set [1] is given as 1494%. The Ki in data set [6], in data set [7], in data set [9] and in [8] was above 1000 nM throughout. In data set [2], this molecule came in with an Inhibition of 87%.
Take `NC(=O)NCc1ccc(CCCCN2CCN(c3ccccc3)CC2)cc1`: in [1], the “IL-10 level (% of control)” value is on record as 253%. The same molecule had an Inhibition in [2] of 85%.
Regarding `CC(=O)NCc1ccc(CN2CCN(c3ccc(Cl)cc3)CC2)cc1`, the “IL-10 level (% of control)” value in data set [1] is reported as 361%. Also, the Ki in [6], in data set [7], in data set [9] and in data set [8] was above 1000 nM throughout. This molecule also returned an Inhibition in [2] of 65%.
